Experiments:
[1] = test system: N. meningitidis 2C4.3 isogenic derivative mutant PilT; experiment: Aggregation of PilT mutant in suspension (phase-contrast video microscopy); format: cell-based, Neisseria meningitidis; conditions: 50 μM
Protocol: N. meningitidis 2C4.3 wild type strain and the isogenic derivative mutant PilT ([…]PiIT) were grown in liquid culture at 10^7 CFU/ml for 2 h to form bacterial aggregates and then treated with 50 μM Trifluoperazine. Time lapse phase-contrast video microscopy was performed to visualize the effect on bacterial aggregates over time. Images were taken at the indicated time points of the video.
(§1) N. meninigitidis 2C4.3 strain and the isogenic derivative mutant PilT, where the pilT gene was interrupted by an erythromycin-resistance cassette (Pujol et al., 1999), were grown in suspension in DMEM medium supplemented with 10% heat-inactivated fetal calf serum. PilT belongs to a highly conserved protein family homologous to AAA-type motor proteins and is proposed to cause the retraction of type IV pili by disassembling the pilin subunits at the base of the fiber (Morand et al., 2004). After 2 h of growth, Trifluoperazine (or control vehicle) was added at 50 μM for 20 min. The effect on bacterial aggregates were visualized over time using a phase-contrast microscope or the bacterial suspensions were fixed in 4% Paraformaldehyde for 10 min, centrifuged at 1000 rpm for 5 minutes and the bacterial pellets washed in PBS. After negative staining with 1% phosphotungstic acid, bacteria were analysed by transmission electron microscopy, using a JEOL 1011 microscope.

[2] = test system: N. meningitidis 2C4.3 wild type strain type IV pili; experiment: Surface expression of type IV pili by transmission electron microscopy, wild type; format: cell-based, Neisseria meningitidis; conditions: 50 μM Trifluoperazine for 30 minutes, wild type 2C4.3
Protocol: N. meningitidis 2C4.3 wild type strain and the isogenic derivative mutant PilT ([…]PiIT) were grown in liquid culture […] electron microscopy. Arrows point at bundles of type IV pili expressed at the bacterial surface.
as §1, with “After 2 h of growth, Trifluoperazine (or control vehicle) was added at 50 μM for 20 min.” left out

[3] = test system: HBMECs infected with meningococci; experiment: PECAM-1 recruitment at bacterial adhesion sites in infected HBMEC; format: cell-based, human; conditions: 5 μM for 2 h during infection
Protocol: (A) Monolayers of HBMECs were non-infected or infected for 2 h with meningococci and the effect on the localisation of the endothelial cell junction proteins PECAM-1 and […]-catenin was analysed by immunofluorescence analysis. Arrows point at PECAM-1 molecules recruited at bacterial adhesion sites (B) HBMECs were infected for 2 h with meningococci in the presence or in the absence of 5 μM Trifluoperazine and the effect on junctional PECAM-1 and on the endothelial cell cytoskeleton remodelling (Ezrin, Actin) was analysed by immunofluorescence analysis. (C) Quantification of Actin and PECAM-1 recruitment at sites of bacterial adhesion was performed using Image J software.
When indicated, HBMECs were grown on Thermanox coverslips coated with gelatin 2% for 2 days to reach confluency. Cells were then infected as above described in the presence or in the absence of 5 μM Trifluoperazine for 2 h. Cells were washed and fixed in 4% paraformaldehyde and immunolabelling was performed with a polyclonal antisera raised anti-Nm2C4.3 strain, anti-human PECAM-1 mouse monoclonal, clone HEC7 (ABCAM ab119339) or rabbit polyclonal 177 raised against PECAM-1, obtained from WA Muller (Northwestern University, Chicago, Ill., US), anti-0 catenin (05-482, UBI), polyclonal antisera raised against Ezrin, Alexa Fluor 633 Phalloidin. […] Quantifications were done using ImageJ software (NIH).

[4] = test system: Nm2C4.3 microcolonies on HCMEC/D3 human brain endothelial cell line; experiment: Dispersion of meningococcal microcolonies on human brain endothelial cells; format: cell-based, Neisseria meningitidis; conditions: 10-40 μM, 30 min
Protocol: A. HBMEC were infected with Nm2C4.3 for 1 h 30, treated with Trifluoperazine (10-40 μM) for 30 minutes, before fixation and immunofluorescence analysis using anti-Nm2C4.3 antibody and Alexa Fluor 633 Phalloidin. B. Quantification of the bacterial colonization was performed using Image J software.
HCMEC/D3, a well-established human brain endothelial cell line (Weksler et al, 2013) was grown in EBM-2 basal medium (Lonza, Walkersville, Md., USA) supplemented with 5% Fetal Bovine Serum “Gold”, 10 mM HEPES (PM Laboratories GmbH, Pasching, Austria), 1% Penicillin-Streptomycin, 1% chemically defined lipid concentrate (Invitrogen Ltd, Paisley, UK), 1.4 μM hydrocortisone, 5 μg·ml^−1 ascorbic acid and 1 ng·ml^−1 bFGF (Sigma-Aldrich, St. Louis, Mo.). Cells were grown on Thermanox coverslips coated with rat collagen I for 4 days at 37° C. in a humidified incubator in 5% CO2. Cells were then infected with a suspension of Nm2C4.3 (˜10^7 CFU/ml) in EBM2/FBS during 30 minutes to allow bacterial adhesion. Cells were then washed three times with medium to remove non-adherent bacteria and infection was pursued for 1 h 30: adherent bacteria grew at the endothelial cell surface and formed micro-colonies. Trifluoperazine was then added to obtain final concentrations of 10, 20, 30 and 40 μM. […] Quantification was done with ImageJ software (NIH). […]

[5] = test system: meningococcal colonization of the human dermal vasculature; experiment: In vivo meningococcal infection of mice engrafted with human skin

## CN1CCN(CCCN2c3ccccc3Sc3ccc(C(F)(F)F)cc32)CC1 [Trifluoperazine]
[1]
  effect on aggregation of PilT mutant strain: had no effect
[2]
  type IV pili expressed on bacterial surface: no longer observed
[3]
  PECAM-1 recruitment at bacterial adhesion sites: prevented PECAM-1 recruitment
  bacterial colonization: did not affect bacterial colonization
[4]
  dispersion of meningococcal microcolonies at the surface of human brain endothelial cells: induced their dispersion
[5]
  colonization of the human dermal vasculature: prevents the massive colonization
  incidence of vascular alteration: reduces incidence of vascular alteration
  signs of intravascular coagulation: reduces the signs of intravascular coagulation
[5]; alone or in combination with cefotaxime
  hallmark of vascular inflammation: drastically reduced
